According to patent US6596719B1 (Actelio Pharmaceuticals Ltd., priority 1999, dated 2003):
Where two headings read alike, the source gives them in different places.

Key:
[1] = molecular target: T1, human recombinant ETA receptors (Homo sapiens, UniProt P25101); assay: Inhibition of endothelin binding to membranes from CHO cells carrying human ET receptors (ETA)
T1 construct: expressed in transfected cells; host or cells: CHO cells (microsomal membranes)
T1 sequence (P25101 21-427): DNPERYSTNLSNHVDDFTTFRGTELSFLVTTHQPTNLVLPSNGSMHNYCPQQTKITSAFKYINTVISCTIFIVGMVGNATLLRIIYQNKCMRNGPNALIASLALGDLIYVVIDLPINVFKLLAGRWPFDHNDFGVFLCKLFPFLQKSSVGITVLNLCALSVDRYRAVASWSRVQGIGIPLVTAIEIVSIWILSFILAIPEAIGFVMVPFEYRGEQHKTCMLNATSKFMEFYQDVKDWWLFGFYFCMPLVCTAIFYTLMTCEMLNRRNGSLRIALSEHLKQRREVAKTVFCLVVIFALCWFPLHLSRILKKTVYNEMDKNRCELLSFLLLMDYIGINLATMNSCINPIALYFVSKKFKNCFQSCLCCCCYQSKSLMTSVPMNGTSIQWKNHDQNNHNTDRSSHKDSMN

[2] = molecular target: T2, human recombinant ETB receptors (Homo sapiens, UniProt P24530); assay: Inhibition of endothelin binding to membranes from CHO cells carrying human ET receptors (ETB)
T2 construct: expressed in transfected cells; host or cells: CHO cells (microsomal membranes)
T2 sequence (P24530 27-442): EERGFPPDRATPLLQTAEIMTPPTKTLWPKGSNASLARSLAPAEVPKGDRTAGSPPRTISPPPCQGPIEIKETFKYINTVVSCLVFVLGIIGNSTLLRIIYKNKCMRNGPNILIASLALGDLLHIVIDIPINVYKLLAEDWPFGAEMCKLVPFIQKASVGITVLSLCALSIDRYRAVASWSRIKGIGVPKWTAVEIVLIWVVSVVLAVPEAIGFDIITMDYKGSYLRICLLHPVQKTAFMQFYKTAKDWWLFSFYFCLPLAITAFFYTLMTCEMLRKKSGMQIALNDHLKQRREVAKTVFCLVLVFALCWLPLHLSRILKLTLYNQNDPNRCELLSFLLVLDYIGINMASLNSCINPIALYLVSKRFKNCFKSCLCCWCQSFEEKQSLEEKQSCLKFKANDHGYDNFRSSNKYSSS
Experimental: 1) Inhibition of Endothelin Binding to Membranes from CHO Cells Carrying Human ET Receptors:
For competition binding studies, membranes of CHO cells expressing human recombinant ETA or ETB receptors were used. Microsomal membranes from recombinant CHO cells were prepared and the binding assay made as previously described (Breu V., et al, FEBS Lett 1993; 334:210).
The assay was performed in 200 uL 50 mM Tris/HCl buffer, pH 7.4, including 25 mM MnCl2, 1 mM EDTA and 0.5% (w/v) BSA in polypropylene microtiter plates. […]. […] After two h, the membranes were filtered on, filterplates containing GF/C filters (Unifilterplates from Canberra Packard S. A. Zürich, Switzerland). To each well, 50 uL of scintillation cocktail was added (MicroScint 20, Canberra Packard S. A. Zürich, Switzerland) and the filter plates counted in a microplate counter (TopCount, Canberra Packard S. A. Zürich, Switzerland).
All the test compounds were dissolved, diluted and added in DMSO. […] […].

[3] = membranes of CHO cells expressing human recombinant ETA receptors, 8 pM [125I]ET-1, 2 h at 20° C.
[4] = membranes of CHO cells expressing human recombinant ETB receptors, 8 pM [125I]ET-1, 2 h at 20° C.

| Compound | IC50 [1, 3] | IC50 [2, 4] | IC50 [1] | IC50 [2] |
| --- | --- | --- | --- | --- |
| 5-i-propyl-N-[6-(2-ethanesulfonylamino-ethoxy)-5-(o-methoxyphenoxy)-2-cyclopropyl-pyrimidin-4-yl]-pyridine-2-sulfonamide [Example 38] | 80 nM | 84 nM | – | – |
| 5-isopropyl-N-[6-(2-(1-propanesulfonylamino)-ethoxy)-5-(o-methoxyphenoxy)-2-(2-pyridyl)-4-pyrimidinyl]-2-pyridine sulfonamide [Example 72] | 153 nM | 279 nM | – | – |
| COc1ccccc1Oc1c(NS(=O)(=O)c2ccc(C(C)(C)C)cc2)nc(-c2ncccn2)nc1OCCNS(=O)(=O)C(F)(F)F [Example 5, p-tert.-butyl-N-[6-(ethoxy-2-trifluoromethanesulfonamido)-5-(o-methoxyphenoxy)-2-(2-pyrimidinyl)-4-pyrimidinyl]benzene-sulfonamide] | – | – | 5560 nM | 356 nM |
| COc1ccccc1Oc1c(NS(=O)(=O)c2ccc(C(C)(C)C)cc2)nc(-c2ncccn2)nc1OCCNS(=O)(=O)c1ccc(C)cc1 [Example 6, p-tert.-butyl-N-[6-(ethoxy-2-p-toluenesulfonamido)-5-(o-methoxyphenoxy)-2-(2-pyrimidinyl)-4-pyrimidinyl]benzene-sulfonamide] | 8300 nM | 420 nM | – | – |
| CCS(=O)(=O)NCCOc1nc(-c2ncccn2)nc(NS(=O)(=O)c2ccc(C(C)(C)C)cc2)c1Oc1ccccc1OC [Example 8, p-tert.-butyl-N-[6-(ethoxy-2-ethanesulfonamido)-5-(o-methoxyphenoxy)-2-(2-pyrimidinyl)-4-pyrimidinyl]benzene-sulfonamide] | 160 nM | 130 nM | – | – |
| COc1ccccc1Oc1c(NS(=O)(=O)c2ccc(C(C)C)cn2)nc(-c2ccncc2)nc1OCCNS(C)(=O)=O [Example 14, 5-i.-propyl-N-[6-(ethoxy-2-methanesulfonamido)-5-(o-methoxyphenoxy)-2-(4-pyridyl)-4-pyrimidinyl]pyridine-2-sulfonamide] | – | – | 518 nM | 451 nM |
| CCCCS(=O)(=O)NCCOc1nc(-c2ncccn2)nc(NS(=O)(=O)c2ccc(C(C)(C)C)cc2)c1Oc1ccccc1OC [Example 17, p-tert.-butyl-N-[6-(ethoxy-2-(1-butanesulfonamido))-5-(o-methoxyphenoxy)-2-(2-pyrimidinyl)-4-pyrimidinyl]benzene-sulfonamide] | – | – | 1100 nM | 117 nM |
| COc1ccccc1Oc1c(NS(=O)(=O)c2ccc(C(C)C)cn2)nc(-c2cc(OC)c(OC)c(OC)c2)nc1OCCNS(=O)(=O)C(C)C [Example 18] | – | – | 209 nM | 1050 nM |
| COc1ccccc1Oc1c(NS(=O)(=O)c2ccc(C(C)C)cn2)nc(C)nc1OCCNS(=O)(=O)c1ccc(C)cc1 [Example 21, 5-i.-propyl-N-[6-(ethoxy-2-p-toluenesulfonamido)-5-(o-methoxyphenoxy)-2-methyl-4-pyrmidinyl]pyridine-2-sulfonamide] | – | – | 881 nM | 21.8 nM |
| COc1ccccc1Oc1c(NS(=O)(=O)c2ccc(C(C)C)cn2)nc(C)nc1OCCNS(C)(=O)=O [Example 23, 5-i.-propyl-N-[6-(ethoxy-2-methanesulfonamido)-5-(o-methoxyphenoxy)-2-methyl-4-pyrimidinyl]pyridine-2-sulfonamide] | – | – | 76.1 nM | 52.7 nM |
| COc1ccccc1Oc1c(NS(=O)(=O)c2ccc(C(C)(C)C)cc2)ncnc1OCCNS(=O)(=O)c1ccc(Br)cc1 [Example 27, 4-tert.-butyl-N-{6-[2-(4-bromobenzenesulfonyl-amino)-ethoxy]-5-(o-methoxy-phenoxy)-pyrimidin-4-yl}-benzenesulfonamide] | – | – | 3630 nM | 995 nM |
| COc1ccccc1Oc1c(NS(=O)(=O)c2ccc(C(C)(C)C)cc2)ncnc1OCCNS(=O)(=O)c1ccc(C)cc1 [Example 28, 4-tert.-butyl-N-{6-[2-(4-methylbenzenesulfonyl-amino)-ethoxy]-5-(o-methoxy-phenoxy)-pydmidin-4-yl}-benzenesulfonamide] | – | – | 3710 nM | 1040 nM |
| COc1ccccc1Oc1c(NS(=O)(=O)c2ccc(C(C)(C)C)cc2)ncnc1OCCNS(=O)(=O)c1cccs1 [Example 29, 4-tert.-butyl-N-{6-[2-(2-thiophenesulfonyl-amino)-ethoxy]-5-(o-methoxy-phenoxy)-pydmidin-4-yl}-benzenesulfonamide] | – | – | 1250 nM | 235 nM |
| CCCS(=O)(=O)NCCOc1ncnc(NS(=O)(=O)c2ccc(C(C)(C)C)cc2)c1Oc1ccccc1OC [Example 30, 4-tert.-butyl-N-{6-[2-(1-propanesulfonyl-amino)-ethoxy]-5-(o-methoxy-phenoxy)-pyrimidin-4-yl}-benzenesulfonamide] | – | – | 484 nM | 288 nM |

Continued, values first:

| IC50 [1, 3] | IC50 [2, 4] | IC50 [1] | IC50 [2] | Compound |
| --- | --- | --- | --- | --- |
| – | – | 409 nM | 735 nM | CCS(=O)(=O)NCCOc1ncnc(NS(=O)(=O)c2ccc(C(C)(C)C)cc2)c1Oc1ccccc1OC [Example 31, 4-tert.-butyl-N-{6-[2-(ethanesulfonylamino)-ethoxy]-5-(o-methoxy-phenoxy)-pydmidin-4-yl}-benzenesulfonamide] |
| – | – | 478 nM | 1210 nM | CCS(=O)(=O)NCCOc1nc(SC)nc(NS(=O)(=O)c2ccc(C(C)(C)C)cc2)c1Oc1ccccc1OC [Example 36f, 4-tert.-butyl-N-[6-(2-ethanesulfonylamino-ethoxy)-5-(o-methoxyphenoxy)-2-methylsulfanyl-pyrimidin-4-yl]-benzenesulfonamide] |
| – | – | 121 nM | 93 nM | CCS(=O)(=O)NCCOc1nc(S(C)(=O)=O)nc(NS(=O)(=O)c2ccc(C(C)(C)C)cc2)c1Oc1ccccc1OC [Example 36g] |
| – | – | 5680 nM | 604 nM | COc1ccccc1Oc1c(NS(=O)(=O)c2ccc(C(C)(C)C)cc2)nc(SC)nc1OCCNS(=O)(=O)c1ccc(C)cc1 [Example 37, 4-tert.-butyl-N-[6-(2-p-toluenesulfonylamino-ethoxy)-5-(o-methoxyphenoxy)-2-methylsulfanyl-pyrimidin-4-yl]-benzenesulfonamide] |
| 1050 nM | 81 nM | – | – | COc1ccccc1Oc1c(NS(=O)(=O)c2ccc(C(C)C)cn2)nc(C2CC2)nc1OCCNS(=O)(=O)c1ccc(C)cc1 [Example 39, 5-i-propyl-N-[6-(2-(4-methylbenzene)-sulfonylamino-ethoxy)-5-(o-methoxyphenoxy)-2-cyclopropyl-pyrimidin-4-yl]-pyridine-2-sulfonamide] |
| – | – | 76 nM | 87 nM | COc1ccccc1Oc1c(NS(=O)(=O)c2ccc(C(C)(C)C)cc2)nc(C2CC2)nc1OCCNS(=O)(=O)C(C)C [Example 40, 4-tert.-butyl-N-[6-(2-(2-propane)-sulfonylamino-ethoxy)-5-(o-methoxyphenoxy)-2-cyclopropyl-pyrimidin-4-yl]-benzene-sulfonamide] |
| 4900 nM | 299 nM | – | – | COc1ccccc1Oc1c(NS(=O)(=O)c2ccc(C(C)(C)C)cc2)nc(C2CC2)nc1OCCNS(=O)(=O)c1ccc(C)cc1 [Example 41] |
| 587 nM | 99 nM | – | – | COc1ccccc1Oc1c(NS(=O)(=O)c2ccc(C(C)C)cn2)nc(N2CCOCC2)nc1OCCNS(=O)(=O)c1cccs1 [Example 42, 5-isopropyl-N-[6-(2-(2-thiophensulfonyl)-amino-ethoxy)-5-(o-methoxyphenoxy)-2-(N-morpholino)-4-pyrimidinyl]-2-pyridine sulfonamide] |
| – | 447 nM | – | – | COc1ccccc1Oc1c(NS(=O)(=O)c2ccc(C)cn2)nc(N2CCOCC2)nc1OCCNS(=O)(=O)c1cccs1 [Example 58, 5-methyl-N-[6-(2-(thiophene-2-sulfonylamino)-ethoxy)-5-(o-methoxyphenoxy)-2-(N-morpholino)-4-pyrimidinyl]-2-pyridine sulfonamide] |
| – | – | – | 4.1 nM | COc1ccccc1Oc1c(NS(=O)(=O)c2ccc(C(C)(C)C)cc2)nc(-c2ncccn2)nc1OCCCNS(=O)(=O)c1cccs1 [Example 90, 4-tert.-butyl-N-[6-(3-(2-thiophenesulfonylamino)-propoxy)-5-(o-methoxyphenoxy)-2-pyrimidinyl-4-pyrimidinyl]-benzene-sulfonamide] |
